Measured values taken from patent US20210085640A1, “ACYLATED CATECHIN POLYPHENOLS AND METHODS OF THEIR USE FOR THE TREATMENT OF CANCER” (Flagship Pioneering Innovations V, Inc., priority 2018, published 2021).
pIC50: −log10 of the molar value.

Assays:
Type in all cases: cell-based
A549 lung cancer cells = assay: Cancer cell survival (CellTiter-Glo), A549; conditions: Homo sapiens, 72 h
How it was run: (§1)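 Cells were seeded at 4×10^3 cells/well and left overnight at 37 C, 5% CO2, then exposed in triplicate to nine compound concentrations for 72 h. Dosing solutions were made at 10× final (1 μM-10 mM fatty acids, 100 nM-1 mM other compounds). CellTiter-Glo luminescence, normalised to untreated and medium-only wells, gave IC50.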

MCF7 breast cancer cells = assay: Cancer cell survival (CellTiter-Glo), MCF7; conditions: Homo sapiens, 72 h
How it was run: as §1

AGS stomach cancer cells = assay: Cancer cell survival (CellTiter-Glo), AGS
How it was run: as §1

[1] = test system: Daudi lymphoma cancer cells; assay: Cancer cell survival (CellTiter-Glo), Daudi; conditions: Homo sapiens, 72 h
How it was run: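 Daudi cells (4×10^3/well) were exposed for 72 h at 37 °C to nine concentrations of compound, added as 10× solutions spanning 1 μM–10 mM (fatty acids) or 100 nM–1 mM (others). CellTiter-Glo luminescence gave % survival versus untreated, medium-blank corrected; IC50 derived.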

[2] = test system: HCT 116 colorectal cancer cells; assay: Cancer cell survival (CellTiter-Glo), HCT 116; conditions: Homo sapiens, HCT 116 cells, 72 h
How it was run: as §1

[3] = test system: PC-3 prostate cancer cells; assay: Cancer cell survival (CellTiter-Glo), PC-3; conditions: Homo sapiens, PC-3 cells, 72 h
How it was run: as §1

A-431 skin cancer cells = assay: Cancer cell survival (CellTiter-Glo), A-431; conditions: Homo sapiens, A-431 cells, 72 h
How it was run: as §1

T24 bladder cancer cells = assay: Cancer cell survival (CellTiter-Glo), T24; conditions: Homo sapiens
How it was run: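 T24 cells seeded at 4×10^3 cells/well overnight, then exposed 72 h at 37 C, 5% CO2 to nine concentrations in triplicate. Survival measured by CellTiter-Glo luminescence relative to untreated and medium controls; IC50 derived.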

[4] = 317 μM, read-out: Cell survival at given concentration
[5] = 1 mM, read-out: Cell survival at given concentration
[6] = 3 mM, read-out: Cell survival at given concentration
[7] = 10 mM, read-out: Cell survival at given concentration

CCCC(=O)O [butyrate]
viability at 1 µM (A549 lung cancer cells; 1 μM, Table 7.2, read-out: Cell survival at given concentration): 95% | viability at 3 µM (A549 lung cancer cells; 3 μM, Table 7.2, read-out: Cell survival at given concentration): 96% | viability at 10 µM (A549 lung cancer cells; 10 μM, Table 7.2, read-out: Cell survival at given concentration): 99% | viability at 32 µM (A549 lung cancer cells; 32 μM, Table 7.2, read-out: Cell survival at given concentration): 100% | viability at 100 µM (A549 lung cancer cells; 100 μM, Table 7.2, read-out: Cell survival at given concentration): 102% | viability at 317 µM (A549 lung cancer cells; [4]): 101% | viability at 1000 µM (A549 lung cancer cells; [5]): 90% | viability at 3000 µM (A549 lung cancer cells; [6]): 67% | viability at 10000 µM (A549 lung cancer cells; [7]): 27% | pIC50 (A549 lung cancer cells; Table 7.2): 2.30 | viability at 1 µM (MCF7 breast cancer cells; 1 μM, Table 5.2, read-out: Cell survival at given concentration): 101% | viability at 3 µM (MCF7 breast cancer cells; 3 μM, Table 5.2, read-out: Cell survival at given concentration): 103% | viability at 10 µM (MCF7 breast cancer cells; 10 μM, Table 5.2, read-out: Cell survival at given concentration): 102% | viability at 32 µM (MCF7 breast cancer cells; 32 μM, Table 5.2, read-out: Cell survival at given concentration): 100% | viability at 100 µM (MCF7 breast cancer cells; 100 μM, Table 5.2, read-out: Cell survival at given concentration): 104% | viability at 317 µM (MCF7 breast cancer cells; [4]): 98% | viability at 1000 µM (MCF7 breast cancer cells; [5]): 82% | viability at 3000 µM (MCF7 breast cancer cells; [6]): 54% | viability at 10000 µM (MCF7 breast cancer cells; [7]): 24% | pIC50 (MCF7 breast cancer cells; Table 5.2): 2.44 | viability at 1 µM (AGS stomach cancer cells; 72 h, 1 μM, Table 10.2, read-out: Cell survival at given concentration): 100% | viability at 3 µM (AGS stomach cancer cells; 72 h, 3 μM, Table 10.2, read-out: Cell survival at given concentration): 100% | viability at 10 µM (AGS stomach cancer cells; 72 h, 10 μM, Table 10.2, read-out: Cell survival at given concentration): 102% | viability at 32 µM (AGS stomach cancer cells; 72 h, 32 μM, Table 10.2, read-out: Cell survival at given concentration): 101% | viability at 100 µM (AGS stomach cancer cells; 72 h, 100 μM, Table 10.2, read-out: Cell survival at given concentration): 104% | viability at 317 µM (AGS stomach cancer cells; 72 h, 317 μM, read-out: Cell survival at given concentration): 105% | viability at 1000 µM (AGS stomach cancer cells; 72 h, 1 mM, read-out: Cell survival at given concentration): 91% | viability at 3000 µM (AGS stomach cancer cells; 72 h, 3 mM, read-out: Cell survival at given concentration): 65% | viability at 10000 µM (AGS stomach cancer cells; 72 h, 10 mM, read-out: Cell survival at given concentration): 11% | pIC50 (AGS stomach cancer cells; Table 10.2): 2.35 | viability at 1 µM ([1]; 1 μM, Table 4.2, read-out: Cell survival at given concentration): 101% | viability at 3 µM ([1]; 3 μM, Table 4.2, read-out: Cell survival at given concentration): 99% | viability at 10 µM ([1]; 10 μM, Table 4.2, read-out: Cell survival at given concentration): 100% | viability at 32 µM ([1]; 32 μM, Table 4.2, read-out: Cell survival at given concentration): 100% | viability at 100 µM ([1]; 100 μM, Table 4.2, read-out: Cell survival at given concentration): 99% | viability at 317 µM [1, 4]: 87% | viability at 1000 µM [1, 5]: 46% | viability at 3000 µM [1, 6]: 19% | viability at 10000 µM [1, 7]: 13% | pIC50 ([1]; Table 4.2): 3.04 | viability at 1 µM ([2]; 1 μM, Table 6.2, read-out: Cell survival at given concentration): 98% | viability at 3 µM ([2]; 3 μM, Table 6.2, read-out: Cell survival at given concentration): 99% | viability at 10 µM ([2]; 10 μM, Table 6.2, read-out: Cell survival at given concentration): 102% | viability at 32 µM ([2]; 32 μM, Table 6.2, read-out: Cell survival at given concentration): 101% | viability at 100 µM ([2]; 100 μM, Table 6.2, read-out: Cell survival at given concentration): 97% | viability at 317 µM [2, 4]: 92% | viability at 1000 µM [2, 5]: 66% | viability at 3000 µM [2, 6]: 18% | viability at 10000 µM [2, 7]: 1% | pIC50 ([2]; Table 6.2): 2.84 | viability at 1 µM ([3]; 1 μM, Table 8.2, read-out: Cell survival at given concentration): 100% | viability at 3 µM ([3]; 3 μM, Table 8.2, read-out: Cell survival at given concentration): 99% | viability at 10 µM ([3]; 10 μM, Table 8.2, read-out: Cell survival at given concentration): 100% | viability at 32 µM ([3]; 32 μM, Table 8.2, read-out: Cell survival at given concentration): 100% | viability at 100 µM ([3]; 100 μM, Table 8.2, read-out: Cell survival at given concentration): 98% | viability at 317 µM [3, 4]: 93% | viability at 1000 µM [3, 5]: 82% | viability at 3000 µM [3, 6]: 66% | viability at 10000 µM [3, 7]: 40% | pIC50 ([3]; Table 8.2): 2.19 | viability at 1 µM (A-431 skin cancer cells; 1 μM, Table 9.2, read-out: Cell survival at given concentration): 103% | viability at 3 µM (A-431 skin cancer cells; 3 μM, Table 9.2, read-out: Cell survival at given concentration): 102% | viability at 10 µM (A-431 skin cancer cells; 10 μM, Table 9.2, read-out: Cell survival at given concentration): 102% | viability at 32 µM (A-431 skin cancer cells; 32 μM, Table 9.2, read-out: Cell survival at given concentration): 103% | viability at 100 µM (A-431 skin cancer cells; 100 μM, Table 9.2, read-out: Cell survival at given concentration): 99% | viability at 317 µM (A-431 skin cancer cells; [4]): 96% | viability at 1000 µM (A-431 skin cancer cells; [5]): 85% | viability at 3000 µM (A-431 skin cancer cells; [6]): 67% | viability at 10000 µM (A-431 skin cancer cells; [7]): 37% | pIC50 (A-431 skin cancer cells; Table 9.2): 2.20 | viability at 1 µM (T24 bladder cancer cells; T-24, 1 μM, 72 h, Table 3.2, read-out: Cell survival at given concentration): 98% | viability at 3 µM (T24 bladder cancer cells; T-24, 3 μM, 72 h, Table 3.2, read-out: Cell survival at given concentration): 100% | viability at 10 µM (T24 bladder cancer cells; T-24, 10 μM, 72 h, Table 3.2, read-out: Cell survival at given concentration): 105% | viability at 32 µM (T24 bladder cancer cells; T-24, 32 μM, 72 h, Table 3.2, read-out: Cell survival at given concentration): 99% | viability at 100 µM (T24 bladder cancer cells; T-24, 100 μM, 72 h, Table 3.2, read-out: Cell survival at given concentration): 97% | viability at 317 µM (T24 bladder cancer cells; T-24, 317 μM, 72 h, read-out: Cell survival at given concentration): 90% | viability at 1000 µM (T24 bladder cancer cells; T-24, 1 mM, 72 h, read-out: Cell survival at given concentration): 84% | viability at 3000 µM (T24 bladder cancer cells; T-24, 3 mM, 72 h, read-out: Cell survival at given concentration): 60% | viability at 10000 µM (T24 bladder cancer cells; T-24, 10 mM, 72 h, read-out: Cell survival at given concentration): 27% | pIC50 (T24 bladder cancer cells; T-24, 72 h, Table 3.2, read-out: IC50): 2.33
